# System: Akt1 phosphorylation (S473) in H4IIE cells
# Assay: Akt1 activation, phospho-Akt1 (Ser473) ELISA
# Assay type: cell-based
# Conditions: FIG. 10c
# Procedure: The insulin receptor autophosphorylation was assessed through the use of an enzyme-linked immunosorbant assay (ELISA). […] Finally, to probe the downstream signaling resulting from insulin binding, a second ELISA experiment was performed to monitor stimulation of Akt phosphorylation (S473).
# Confluent H4IIE cells were serum deprived for 4 hours in […] β-mercaptoethanol and 0.25% bovine serum albumin. […] Cells were lysed in 0.5 ml 1× Cell Lysis Buffer (Cell Signaling, #7160) and cells broken open by brief sonication. Lysates were collected and centrifuged for 10 minutes at 14,000 rpm. Supernatants were recovered, diluted 1:1 with Sample Diluent, and phospho-Akt1 was quantitated in 100 μL of each diluted supernatant using the PathScan phospho-Akt1 (Ser473) ELISA (Cell Signaling, #7160).
substance,measurement,value
B^1-[Re(CO)3{bis(2-pyridylmethyl)pentanoyl-6-aminohexanoyl)}]insulin [compound 6],Akt phosphorylation (S473) response compared to unmodified human insulin,not significantly different
